Tested on: 922993-354-T-J3-PDC complex spheroid viability
Assay: Anticancer human tumor 922993-354-T-J3-PDC patient-derived endometrial carcinoma cell line growth inhibition [POLQ]
Conditions: for IC50: curve of first compound; for viability, T/C: stronger effect = lower value
Outline: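 Complex spheroid viability model combining PDC tumour cells with endothelial (HUVEC) and MSC stromal cells. Novobiocin, ART-558 or RP6685 were tested singly and in combination with standard and investigational anticancer drugs. Each was titrated in half-log steps from near clinical Cmax, or from 10 microM where Cmax was unknown.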

[1] = second compound 0.0316 µM, first compound 0.0316 µM
[2] = second compound 0.0316 µM, first compound 0.1 µM
[3] = second compound 0.0316 µM, first compound 0.316 µM
[4] = second compound 0.0316 µM, first compound 1 µM
[5] = second compound 0.0316 µM, first compound 3.16 µM
[6] = second compound 0.0316 µM, first compound 10 µM
[7] = second compound 0.1 µM, first compound 0.0316 µM
[8] = second compound 0.1 µM, first compound 0.1 µM
[9] = second compound 0.1 µM, first compound 0.316 µM
[10] = second compound 0.1 µM, first compound 1 µM
[11] = second compound 0.1 µM, first compound 3.16 µM
[12] = second compound 0.1 µM, first compound 10 µM
[13] = second compound 0.316 µM, first compound 0.0316 µM
[14] = second compound 0.316 µM, first compound 0.1 µM
[15] = second compound 0.316 µM, first compound 0.316 µM
[16] = second compound 0.316 µM, first compound 1 µM
[17] = second compound 0.316 µM, first compound 3.16 µM
[18] = second compound 0.316 µM, first compound 10 µM
[19] = second compound 1 µM, first compound 0.0316 µM
[20] = second compound 1 µM, first compound 0.1 µM
[21] = second compound 1 µM, first compound 0.316 µM
[22] = second compound 1 µM, first compound 1 µM
[23] = second compound 1 µM, first compound 3.16 µM
[24] = second compound 1 µM, first compound 10 µM
[25] = second compound 3.16 µM, first compound 0.0316 µM
[26] = second compound 3.16 µM, first compound 0.1 µM
[27] = second compound 3.16 µM, first compound 0.316 µM
[28] = second compound 3.16 µM, first compound 1 µM
[29] = second compound 3.16 µM, first compound 3.16 µM
[30] = second compound 3.16 µM, first compound 10 µM
[31] = second compound 10 µM, first compound 0.0316 µM
[32] = second compound 10 µM, first compound 0.1 µM
[33] = second compound 10 µM, first compound 0.316 µM
[34] = second compound 10 µM, first compound 1 µM
[35] = second compound 10 µM, first compound 3.16 µM
[36] = second compound 10 µM, first compound 10 µM
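Note: spheroids exposed to the agents for one week.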
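Throughout, for viability, T/C: 100% = DMSO vehicle control wells.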

Structure (SMILES): CC1COCCN1c1cc(-c2ccnn2C)c2ccnc(-c3ccn[nH]3)c2n1 (centres undefined) + COC1C(OC(N)=O)C(O)C(Oc2ccc3c(O)c(NC(=O)c4ccc(O)c(CC=C(C)C)c4)c(=O)oc3c2C)OC1(C)C
- IC50 (second compound 0.0316 µM): 121 nM
- IC50 (second compound 0.1 µM): 185 nM
- IC50 (second compound 0.316 µM): 172 nM
- IC50 (second compound 1 µM): 152 nM
- IC50 (second compound 3.16 µM): 143 nM
- IC50 (second compound 10 µM): 117 nM
- viability, T/C [1]: 83.5%
- viability, T/C [2]: 54.2%
- viability, T/C [3]: 27.8%
- viability, T/C [4]: 11.2%
- viability, T/C [5]: 10.4%
- viability, T/C [6]: 11.8%
- viability, T/C [7]: 94.4%
- viability, T/C [8]: 69.9%
- viability, T/C [9]: 33.7%
- viability, T/C [10]: 9.37%
- viability, T/C [11]: 8.43%
- viability, T/C [12]: 10.4%
- viability, T/C [13]: 95.1%
- viability, T/C [14]: 68.4%
- viability, T/C [15]: 29.5%
- viability, T/C [16]: 12.7%
- viability, T/C [17]: 9.09%
- viability, T/C [18]: 11.2%
- viability, T/C [19]: 78.6%
- viability, T/C [20]: 55.4%
- viability, T/C [21]: 39.7%
- viability, T/C [22]: 10.2%
- viability, T/C [23]: 8.85%
- viability, T/C [24]: 10.6%
- viability, T/C [25]: 89.9%
- viability, T/C [26]: 60%
- viability, T/C [27]: 27.9%
- viability, T/C [28]: 9.41%
- viability, T/C [29]: 7.96%
- viability, T/C [30]: 11.8%
- viability, T/C [31]: 82%
- viability, T/C [32]: 53.3%
- viability, T/C [33]: 26.8%
- viability, T/C [34]: 8.03%
- viability, T/C [35]: 9.82%
- viability, T/C [36]: 10.7%

Structure (SMILES): CCc1cc2c(N3CCc4c(cc(Cn5ccnc5)cc4-c4cn(C)nc4C(F)(F)F)C3=O)cc(C)nc2c(OC)n1 + COC1C(OC(N)=O)C(O)C(Oc2ccc3c(O)c(NC(=O)c4ccc(O)c(CC=C(C)C)c4)c(=O)oc3c2C)OC1(C)C
- IC50 (second compound 0.0316 µM): > 10000 nM
- IC50 (second compound 0.1 µM): > 10000 nM
- IC50 (second compound 0.316 µM): > 10000 nM
- IC50 (second compound 1 µM): > 10000 nM
- IC50 (second compound 3.16 µM): > 10000 nM
- IC50 (second compound 10 µM): > 10000 nM
- viability, T/C [1]: 113%
- viability, T/C [2]: 98.7%
- viability, T/C [3]: 99.7%
- viability, T/C [4]: 107%
- viability, T/C [5]: 99.8%
- viability, T/C [6]: 80.5%
- viability, T/C [7]: 111%
- viability, T/C [8]: 94.3%
- viability, T/C [9]: 108%
- viability, T/C [10]: 98.1%
- viability, T/C [11]: 104%
- viability, T/C [12]: 88.9%
- viability, T/C [13]: 103%
- viability, T/C [14]: 103%
- viability, T/C [15]: 93.7%
- viability, T/C [16]: 108%
- viability, T/C [17]: 94.1%
- viability, T/C [18]: 88.1%
- viability, T/C [19]: 108%
- viability, T/C [20]: 111%
- viability, T/C [21]: 103%
- viability, T/C [22]: 99.2%
- viability, T/C [23]: 90.2%
- viability, T/C [24]: 82.4%
- viability, T/C [25]: 95.9%
- viability, T/C [26]: 106%
- viability, T/C [27]: 108%
- viability, T/C [28]: 95%
- viability, T/C [29]: 86.2%
- viability, T/C [30]: 80.6%
- viability, T/C [31]: 92.8%
- viability, T/C [32]: 89.1%
- viability, T/C [33]: 87.5%
- viability, T/C [34]: 92.9%
- viability, T/C [35]: 92.4%
- viability, T/C [36]: 74.3%

— PubChem BioAssay AID1963830 (Molecular Pharmacology Branch, DTP, NCI, 2024)
